What was measured:
pancreatic cancer = settings: patients diagnosed with pancreatic cancer; cited from earlier work
[1] = system: KPC-derived orthotopic pancreatic tumors; assay: Syngeneic orthotopic pancreatic cancer model, gemcitabine and IGF blocking antibody BI 836845; format: in vivo, mouse; settings: for effect on tumor growth (tumor weights): i.p. twice a week for two weeks, gemcitabine 100 mg/Kg, BI 836845 100 mg/Kg, vs control IgG, FIG. 47b
Experimental: FIG. 47 illustrates a combination with gemcitabine with IGF blockade inhibites tumor growth in the syngeneic orthotopic pancreatic cancer model: (a) KPC^luc/zsGreen(zsGreen)-derived pancreatic tumor cells were orthotopically implanted into the pancreas of syngeneic recipient mice, and mice were treated, starting at day 7 after tumor implantation, twice a week i.p., with either control IgG antibody, gemcitabine (100 mg/Kg), IGF blocking antibody BI 836845 (100 mg/Kg) or a combination of gemcitabine with IGF blocking antibody. (b) Representative images of tumors and tumor weights are shown (n=6 mice per group). (c) Pancreatic tumors were digested and percentage of intra- tumoral F4/80+ macrophages, Ly6C+/Ly6G− inflammatory monoctyes, Gr1+/CD11b+ neutrophils and myeloid derived suppressor cells (MDSCs) and CD8+ cytotoxic T cells (CTCs), among CD45+ immune cells, were quantified by flow cytometry (n=3). (d) Percentage of intra-tumoral CD206− M1-like macrophages and CD206+M2-like macrophages, among F4/80+ macrophages, were quantified by flow cytometry (n=3). […] (f) Quantification of cleaved caspase-3 positive apoptotic cells in PDA tumors treated with IgG (control), gemcitabine, IGF blocking antibody BI 836845 or gemcitabine+BI 836845 (n=6 fields counted).
All animal experiments were performed in accordance with current UK legislation under an approved project licence (reference number: 403725). […] Tumor tissues were analyzed by immunohistochemical and immunofluorescent staining for phospho-lnsulin/IGFR expression, EpCAM expression, macrophage infiltration, fibroblast activation and apoptosis using the following antibodies: phospho-insulin/IGF receptor antibody (R&D), EpCAM (BD Pharmingen), CD68 antibody (DAKO), CD206 (abcam), αSMA (abcam) and cleaved caspase 3 (Cell signaling). Expression of IGF-1, IGF-2, Arginase, IL-10, IFNγ and IL-12 in intra-tumoral isolated macrophages were determined by qPCR. […]

[2] = system: Suit-2 and KPC derived pancreatic cancer cells; assay: Cell death and cell cycle analysis of cancer cells treated with the agents alone; format: cell-based, human, mouse; settings: no chemotherapy; antibody 10 μg/ml, recombinant IGF 100 ng/ml; FIGS. 52 and 53
Experimental: FIG. 52 illustrates quantification of cell death in Suit-2 cells exposed to 200 nM gemcitabine, MCM and/or IGF blocking antibody (10 μg/ml). Error bars represent s.d. (n=3); **two tailed p value≤0.01 using a student's t-test.
FIG. 53 illustrates cell cycle analysis of primary mouse KPC derived pancreatic cancer cells exposed to MCM, IGF blocking antibody ([…]) or recombinant IGF (100 ng/ml).
KPC derived pancreatic cancer cells were treated with isogenic mouse MDFs, IGF1/2 blocking antibody (abcam 9572) at 10 μg/ml or recombinant IGF (Peprotech 100-11) at 100 ng/ml. Cells were harvested, fixed with methanol, treated for 45 min with 10 μg/ml of RNase, resuspended in PBS containing 10 μg/ml of propidium iodide and subjected to flow cytometry.

[3] = system: MDA-MB-231 breast cancer cells; assay: Cell death by flow cytometry under nab-paclitaxel with MCM or recombinant IGF; format: cell-based, human; settings: recombinant IGF 100 ng/ml; 500 nM nab-paclitaxel, 48 hours; FIG. 33
Experimental: FIG. 33 illustrates human breast MDA-MB-231 cancer cells cultured in the presence or absence of MCM or recombinant IGF and treated with 500 nM nab-paclitaxel for 48 hours. Percentage of cell death was quantified by flow cytometry. Error bars represent s.d. (n=3); *two tailed p value≤0.05, **two tailed p value≤0.01 using a student's t-test.
MDA-MB-231 cells were pretreated for 3 hours with human macrophage derived factors (MDF) or recombinant IGF (100 ng/ml) followed by 500 nM of nab-paclitaxel.

[4] = system: Suit-2 and KPC-derived pancreatic cancer cells; assay: Cell death by flow cytometry (annexinV/PI) under chemotherapy with MCM, IGF blocking antibody or recombinant IGF; format: cell-based; settings: recombinant IGF 100 ng/ml, 24 hours, FIGS. 30-32
Experimental: FIG. 29 illustrates quantification of cell death in Suit-2 cells treated with gemcitabine, MCM and IGF blocking antibody for 24 hours. Error bars represent s.d. (n=3); **two tailed p value≤0.01, *two tailed p value≤0.05 using a student's t-test.
FIG. 30 illustrates primary mouse KPC-derived pancreatic cancer cells were untreated or treated with gemcitabine, MCM, IGF blocking antibody or recombinant IGF for 24 hours and percentage of cell death was quantified by flow cytometry. Error bars represent s.d. (n=3); **two tailed p value≤0.01 using a student's t-test.
FIG. 32 illustrates KPC-derived cells which were cultured in the presence or absence of MCM or recombinant IGF and treated with 100 or 1000 nM nab-paclitaxel for 24 hours. Percentage of cell death was quantified by flow cytometry. Error bars represent s.d. (n=3); *two tailed p value≤0.05 using a student's t-test.
Suit-2 and KPC cells were cultured in serum free or DMEM with 2% FBS respectively, pretreated for 3 h with human or mouse macrophage conditioned media respectively, and IGF-1 IgG blocking antibody (abcam 9572) at 10 μg/ml or IgG antibody as control, followed by Gemcitabine at 200 nM. Cells were harvested after 24 hours, and subjected to flow cytometry. […] Apoptosis was evaluated by flow cytometry (FACS Calibur, Becton Dickinson). […]

Insulin/IGF receptor = assay: Immunoblotting of Insulin/IGF receptor signalling in cancer cells; format: cell-based, human, mouse; settings: Suit-2, KPC-derived and Py230 cells, 3 hours; FIG. 27
Experimental: FIG. 27 illustrates Immunoblot analysis of phospho-lnsulin/IGF receptor, phospho-Insulin receptor, Insulin receptor, phospho- IGF receptor 1, IGFR1 and tubulin, in human pancreatic cancer Suit-2 cells, murine primary KPC pancreatic cancer and
Py230 breast cancer derived cells, serum starved, exposed to MCM or exposed to recombinant IGF for 3 hours.
FIG. 28 illustrates that blockade of IGF impairs macrophage-mediated activation of Insulin/IGF receptor and downstream signalling molecules IRS1, IRS2 and AKT in cancer cells by Immunoblotting analysis of Suit-2 cells untreated or treated with MCM or MCM+IGF blocking antibody for 3 hours.
Cells were serum starved or treated with macrophage conditioned media for 30 min, 2 h or 3 h, harvested and lysed in RIPA buffer (150 mM NaCl, 10 mM Tris-HCl pH 7.2, 0.1% SDS, 1% Triton X-100, 5 mM EDTA) supplemented with a complete protease inhibitor mixture (SIGMA), a phosphatase inhibitor cocktail (Invitrogen), 1 mM PMSF and 0.2 mM Na3VO4. Cell lysates (300 μg) were analyzed with the Human Phospho-RTK Array Kit (R&D Systems). Protein samples were resuspended in 4xLaemmli sample buffer, and immunoblotting was performed on nitrocellulose membranes blocked in 5% BSA or milk (depending on the antibody) in Tris-buffered saline Tween-20 (TBST). […]

## Nc1ccn([C@@H]2O[C@H](CO)[C@@H](O)C2(F)F)c(=O)n1 [gemcitabine]
Pancreatic cancer
  patients treated with gemcitabine who die within 5 years of commencing treatment: 95%
[1]
  effect on tumor growth (tumor weights): no effect

## recombinant IGF: recombinant IGF (Peprotech 100-11) used at 100 ng/ml
[2]
  survival or proliferation of cancer cells, agent alone: did not alter the survival or proliferation
[3]
  resistance of breast cancer cells to nab-paclitaxel: sufficient to mediate resistance
[4]
  resistance of pancreatic cancer cells to gemcitabine and nab-paclitaxel: sufficient to mediate resistance
Insulin/IGF receptor
  Insulin/IGFR signaling in pancreatic and breast cancer cells: activates Insulin/IGFR signaling

B1: BI 836845: IGF blocking antibody, in phase 1 clinical trials for various solid cancers (antibody, chains of the INN, looked up, V domains shown)
VH: QVELVESGGGLVQPGGSLRLSCAASGFTFTSYWMSWVRQAPGKGLELVSSITSYGSFTYYADSVKGRFTISRDNSKNTLYLQMNSLRAEDTAVYYCARNMYTHFDSWGQGTLVTVSS
VL: DIVLTQPPSVSGAPGQRVTISCSGSSSNIGSNSVSWYQQLPGTAPKLLIYDNSKRPSGVPDRFSGSKSGTSASLAITGLQSEDEADYYCQSRDTYGYYWVFGGGTKLTVL
[1]
  effect on tumor growth (tumor weights): modest effect
[1]; immunohistochemical analysis, FIG. 47e
  phospho-Insulin/IGFR expression in tumors: decreased

— US20180104332A1, “INSULIN-LIKE GROWTH FACTOR INHIBITOR AND CHEMOTHERAPEUTIC AGENT FOR USE IN CANCER THERAPY” (The University of Liverpool, priority 2015, published 2018)
